In US12310950B2, “Formulations of pyrrolopyridine-aniline compounds” (NFLECTION THERAPEUTICS, INC., priority 2021, dated 2025):
“Also recorded” adds a separate entry of the source.

Legend:
p-ERK [1] = assay: Minipig non-GLP 28-day dermal tolerability study: p-ERK suppression in skin; assay type: in vivo; conditions: Compound 1.003 in gel formulation (NA-1a), 0.01% and 0.1%, 28 days
Procedure: Non-GLP 28-Day Dermal Tolerability Study: 4 doses of A-D formulations applied to each of 4 pigs (2 females, 2 males), where A: vehicle (NA-1a without Compound 1.003) at 30 uL/cm^2; B: NA-1a-0.01% at 10 uL/cm^2; C: NA-1a-0.1% at 30 uL/cm^2; and D: NA-1a-0.1% at 10 uL/cm^2. Minipigs were treated […] for 28 days. Biopsy obtained 4 hours after last dose on Day 28.

p-ERK [2] = assay: p-ERK suppression in rat skin by oral administration; assay type: in vivo
Procedure: p-ERK suppression in rat skin was evaluated by oral administration of Compound 1.003.

p-ERK [3] = assay: Ex vivo cutaneous neurofibroma explants (Example 20): p-ERK by immunohistochemistry; assay type: cell-based, human; conditions: 3 μl of gel formulation on explant; 0.1% or 0.5% by weight
Procedure: The study was conducted using a protocol similar to Example 16 with some modifications as described below.
Skin samples divided to smaller 3-4 mm pieces and placed dermal side down onto membranes. The edges of the samples were sealed with semisoft 3% agarose prepared in DMEMF-12 medium, and the apical surface was kept in contact with air to use formulations. The basal surface was in contact with the growth medium DMEMF-12 containing 10% human serum, Amphotericin B, Penicillin-Streptomycin and 1XB27. This set up enables testing of transdermal drug delivery while the tissues remain viable in the medium for the duration of the test. 3 μl of the test formulation was used.
Immunohistochemistry: Immunohistochemistry for p-ERK was performed using standard operating procedures and fully automated workflow.
3 μl of the test formulation was used.

p-ERK1/2 = assay: UV-driven mouse model of cSCC: nano-immunoassay for p-ERK1/2 and total ERK1/2 in skin biopsies; assay type: in vivo, Hairless SKH-1E mice
Procedure: (§1) A UV-driven mouse model was used to test if a topical formulation including Compound 1.003 could be used to reduce tumor burden in vivo. […] Once a mouse developed one tumor that measured 3 mm in diameter, they were randomly assigned to receive Vehicle, 0.1% Compound 1.003, 0.5% Compound 1.003, 1.0% Compound 1.003, or 2.3% Compound 1.003. Once enrolled, mice were treated with 200 uL of vehicle or the gel formulation of Compound 1.003. Drug was evenly applied to the back skin of the mouse and allowed to dry. Mice were treated for 30 days (5 d/week). […] Skin biopsies were obtained 4 hours after drug treatment at end of study.

cSCC [4] = assay: UV-driven mouse model of cSCC, chemoprevention study: number of tumors; assay type: in vivo, Hairless SKH-1E mice
Procedure: 136, no. 9, 2016, pp. 1920-1924 by Adelmann, C. H., et al., the entirety of which is incorporated herein by reference for all purposes. UV radiation was administered using a solar simulator (Oriel) metered at 12.5 kJ/m^2 UVB weekly, 3.4 SED for three months on Hairless SKH-1E mice.
Samples: The gel formulation (NA-1a) including Compound 1.003 in an amount of 0.1%, 0.5%, 1.0%, and 2.3% by weight of the formulation was used in the study.
as §1

ICI = assay: CellTiter-Glo Luminescent Cell Viability Assay, SCC cells ICI; assay type: cell-based, human; conditions: 72 hours, 0.01-30 μM, compared to NHEK
COLO 16 = assay: CellTiter-Glo Luminescent Cell Viability Assay, SCC cells COLO 16; assay type: cell-based, human; conditions: 72 hours, 0.01-30 μM, compared to NHEK
[5] = tested on: phosphorylated-ERK1/2 (pERK); assay: Human cSCC explant: immunohistochemistry for p-ERK; assay type: cell-based; conditions: 0.1% Compound 1.003 in NA-1a gel formulation on epidermal surface for 4 hours, vs vehicle
p-ERK [6] = assay: Ex vivo human cutaneous neurofibroma explants (Example 16): p-ERK by Western Blot; assay type: cell-based; conditions: Compound 1.003 0.5% and 1.5%, topical on explant, 4 hours
Procedure: Biopsies of cutaneous neurofibroma were taken from patients undergoing excision of neurofibromas for clinical purposes. The ex vivo human explant model was established by incubating sections of biopsies of human cutaneous neurofibroma. Cutaneous Neurofibroma samples were removed from patients, transferred immediately to the lab in 15 ml […] tubes containing 5 ml DMEM/F-12 medium (Thermo Fisher, Cat #11320033) supplemented with 1XB27 supplement (Gibco™ B-27™ Supplement (50×) serum free (Cat #17504044), 2.5 μg/ml of Amphotericin B (Thermo Fisher, Cat #15290018), and 50 units/ml of Penicillin-50 μg/ml of Streptomycin (Thermo Fisher, Cat #15070063), and 10% human serum (Gemini 100-110). Skin samples divided to smaller 3-4 mm pieces and placed dermal side down onto membranes (Transwell Permeable Supports, 12 well plate, Corning 12 mm Transwell® with 3.0 μm Pore Polycarbonate Membrane Insert, Sterile Corning #3402). The edges of the samples were sealed with semisoft 3% agarose (Sigma, CAS 9012-36-6) prepared in DMEMF-12 medium, and the apical surface was kept in contact with air to use formulations. […]
Western Blot analysis: Frozen skin samples were thawed on ice and weighed. […] The lysate protein concentration was determined by the BCA protein assay kit using bovine serum albumin (BSA) as standards. […]

cSCC [7] = assay: UV-driven mouse model of cSCC, split-mouse study: total tumor burden; assay type: in vivo, Hairless SKH-1E mice; conditions: split-control, 1.0% Compound 1.003 on one side, vehicle on the other, 30 days, n=5
Procedure: To internally control for potential systemic exposure, 5 mice were treated in split-control fashion with one side getting vehicle only and the other side of the same mouse receiving topical 1.0% Compound 1.003. Total tumor burden (summed volume) is quantified in untreated vs. treated sides at the beginning (black) as compared to the end of treatment 30 days later (n=5).
To definitively address the possibility of systemic exposure and non-local effects of topically applied Compound 1.003, 5 mice was treated in split-control fashion with one side with vehicle only and the other side with 1.0% Compound 1.003.

[8] = UV-driven mouse model of cSCC: tolerability (skin, body weight); assay type: in vivo, Hairless SKH-1E mice; conditions: topical 0.1%-2.3%, 30 days
Procedure: as §1

in vivo = conditions: rat, po, 300 mg/kg/day
[9] = systemic exposure; cited from earlier work

## Cn1c(Nc2ccc(I)cc2F)c(C(=O)NOCCO)c2cccnc21 [Compound 1.003]
p-ERK [1]
  suppression of p-ERK in minipig skin (FIG. 1): dose dependent suppression of p-ERK
p-ERK [2]; rat skin, oral, various doses
  change of p-ERK after oral administration (FIG. 2): no change of p-ERK
p-ERK [2]; rat, 21-days of oral administration at 300 mg/kg/day
  suppression of p-ERK in the skin: not observed
p-ERK [3]
  suppression of p-ERK by immunohistochemistry: Dose dependent suppression
p-ERK1/2; 0.1% and greater vs vehicle, biopsies 4 hours after drug treatment at end of study
  p-ERK levels in skin biopsies (nano-immunoassay): suppression of p-ERK levels
p-ERK1/2; concentrations 0.6 or greater (so in the source), in %
  suppression of p-ERK levels in mouse skin (FIG. 6B, text): ≥ 65
p-ERK1/2; mouse skin treated with Compound 1.003
  suppression of p-ERK levels in mouse skin (FIG. 6B legend): ≥ 65%
cSCC [4]; 0.1% in gel (NA-1a), 30 days, n=10 mice, vehicle 60 tumors
  number of tumors at the end of treatment, 0.1%: 31 tumors
cSCC [4]; 0.5% in gel (NA-1a), 30 days, n=10 mice, vehicle 60 tumors
  number of tumors at the end of treatment, 0.5%: 23 tumors
cSCC [4]; 1.0% dose and above, 30 days, n=10 per group
  suppression of new tumors at 1.0% dose and above: near complete suppression of new tumors
cSCC [4]; 1.0% in gel (NA-1a), 30 days, n=10 mice, vehicle 60 tumors
  number of tumors at the end of treatment, 1.0%: 13 tumors
cSCC [4]; 2.3% in gel (NA-1a), 200 uL, 30 days (5 d/week), n=10 mice, vehicle 60 tumors
  number of tumors at the end of treatment, 2.3%: 16 tumors
cSCC [4]; gel formulation (NA-1a), 0.1%-2.3%, 30 days
  total tumors / new tumor formation (FIG. 5): dramatically suppresses new tumor formation; also recorded: suppression of total tumors
cSCC [4]; highest doses of Compound 1.003, vs vehicle
  decrease in the total number of tumors present at the end of treatment: approximately 4 fold
ICI
  cell viability, ICI: dose dependent reduction in cell viability
COLO 16
  cell viability, COLO 16: dose dependent reduction in cell viability
[5]
  suppression of p-ERK in human cSCC specimens (immunohistochemistry): robust suppression of p-ERK
p-ERK [6]
  suppression of p-ERK by Western Blot analysis: complete suppression of p-ERK
cSCC [7]
  total tumor volume / tumor burden on the treated side: Substantial tumor regression and tumor suppression; also recorded: decreased to nearly undetectable levels
[8]
  skin peeling or erosions: No skin peeling or erosions were observed
  weight loss (biweekly weight measurement): no weight loss
In vivo
  Cmax: ~1360 ng/mL

## O=C1CCCc2c1sc(Nc1ccc(I)cc1F)c2C(=O)NOCCO [Compound 2.003]
p-ERK [3]
  suppression of p-ERK by immunohistochemistry: Dose dependent suppression

## O=C(NOC[C@H](O)CO)c1ccc(F)c(F)c1Nc1ccc(I)cc1F [PD0325901]
[9]
  side effects in clinical trials: neurological side effects associated with ataxia, confusion, and syncope
